Experiments:
[1] = test system: various bacterial strains; conditions: 10-minute exposure; 0.02% chlorhexidine solution; cited from earlier work
[2] = test system: Aspergillus niger; assay: Modified disc diffusion method; format: cell-based; parameters: key: +sign indicates that the boron compounds had antimicrobial activity.; −sign indicates that there is no antimicrobial activity; conditions: disc immersed in pulverized boron compound; Nystatin 30 μg/disc; 25±1° C., 72 hours
[3] = test system: Candida albicans; assay: Modified disc diffusion method; format: cell-based; parameters: key: +sign indicates that the boron compounds had antimicrobial activity.; −sign indicates that there is no antimicrobial activity; conditions: disc immersed in pulverized boron compound; Nystatin 30 μg/disc; 36±1° C., 48 hours
[4] = test system: Candida glabrata; assay: Modified disc diffusion method; format: cell-based; parameters: key: +sign indicates that the boron compounds had antimicrobial activity.; −sign indicates that there is no antimicrobial activity; conditions: disc immersed in pulverized boron compound; Nystatin 30 μg/disc; 36±1° C., 48 hours
[5] = test system: Pseudomonas aeruginosa; assay: Modified disc diffusion method; format: cell-based; parameters: key: +sign indicates that the boron compounds had antimicrobial activity.; −sign indicates that there is no antimicrobial activity; conditions: disc immersed in pulverized boron compound; Ofloxacin 10 μg/disc; 36±1° C., 24 hours
[6] = test system: Escherichia coli; assay: Modified disc diffusion method; format: cell-based; parameters: key: +sign indicates that the boron compounds had antimicrobial activity.; −sign indicates that there is no antimicrobial activity; conditions: disc immersed in pulverized boron compound; Ofloxacin 10 μg/disc; 36±1° C., 24 hours
[7] = test system: Staphylococcus aureus; assay: Modified disc diffusion method; format: cell-based; parameters: key: +sign indicates that the boron compounds had antimicrobial activity.; −sign indicates that there is no antimicrobial activity; conditions: disc immersed in pulverized boron compound; Ofloxacin 10 μg/disc; 36±1° C., 24 hours
[8] = test system: all of the tested microorganisms; format: cell-based
[9] = test system: Fusarium oxysporum; assay: Modified disc diffusion method; format: cell-based; parameters: key: +sign indicates that the boron compounds had antimicrobial activity.; −sign indicates that there is no antimicrobial activity; conditions: disc immersed in pulverized boron compound; Nystatin 30 μg/disc; 25±1° C., 72 hours
[10] = test system: Penicillium vinaceum; assay: Modified disc diffusion method; format: cell-based; parameters: key: +sign indicates that the boron compounds had antimicrobial activity.; −sign indicates that there is no antimicrobial activity; conditions: disc immersed in pulverized boron compound; Nystatin 30 μg/disc; 25±1° C., 72 hours
[11] = test system: Botrytis cinerea; assay: Modified disc diffusion method; format: cell-based; parameters: key: +sign indicates that the boron compounds had antimicrobial activity.; −sign indicates that there is no antimicrobial activity; conditions: disc immersed in pulverized boron compound; Nystatin 30 μg/disc; 25±1° C., 72 hours
[12] = test system: Penicillium expansum; assay: Modified disc diffusion method; format: cell-based; parameters: key: +sign indicates that the boron compounds had antimicrobial activity.; −sign indicates that there is no antimicrobial activity; conditions: disc immersed in pulverized boron compound; Nystatin 30 μg/disc; 25±1° C., 72 hours
[13] = test system: HEp-2 cells (ATCC CCL-23)
[14] = test system: Herpesvirus hominis; conditions: 0.02% chlorhexidine gluconate; 90-minute exposure at room temperature; cited from earlier work
[15] = test system: adenovirus; conditions: 0.02% chlorhexidine gluconate; 90-minute exposure at room temperature; cited from earlier work
[16] = test system: poliovirus; conditions: 0.02% chlorhexidine gluconate; 90-minute exposure at room temperature; cited from earlier work
[17] = test system: Human Herpes simplex virus type 1 (HSV-1) MacIntyre strain; assay: Antiviral activity test in Vero cell culture (TCID50, Spearman-Karber); format: cell-based; conditions: for Reduction ratio in virus titration / Virus titration with Chlorhexidine gluconate: 0.1%, 20° C.; for Virus titration with Chlorhexidine gluconate: reference virus 7.3
[18] = test system: Human adenovirus type 5 Adenoid 75 strain; assay: Antiviral activity test in HEp-2 cell culture (TCID50, Spearman-Karber); format: cell-based; conditions: for Reduction ratio in virus titration / Virus titration with Chlorhexidine gluconate: 0.1%, 20° C.; for Virus titration with Chlorhexidine gluconate: reference virus 5.5
[19] = test system: Poliovirus type 1 Chat strain; format: cell-based
[20] = test system: enteric bacteria; conditions: cited from earlier work
[21] = test system: micrococci; conditions: cited from earlier work
[22] = test system: Propionibacterium acnes; conditions: cited from earlier work
[23] = test system: streptococci; conditions: cited from earlier work
[24] = test system: Penicillium expansium; conditions: cited from earlier work
[25] = test system: Botrytis cinerea; conditions: 1% concentration; cited from earlier work
[26] = room temperature (20° C.), clean and polluted media, 1 and 60 minute application periods
[27] = used directly without being diluted, room temperature (20° C.), 1 and 60 minute application periods

[H]/N=C(\N/C(=N/[H])NCCCCCCNC(=N)NC(=N)Nc1ccc(Cl)cc1)Nc1ccc(Cl)cc1 [chlorhexidine]
inhibition of microorganisms [1]: 99.99%

O.O.O.O.[Na+].[O-]B1OO1 [SPT, Sodium perborate tetrahydrate]
Antimicrobial activity (inhibition zone) [2]: + | Antimicrobial activity (inhibition zone) [3]: + | Antimicrobial activity (inhibition zone) [4]: + | Antimicrobial activity (inhibition zone) [5]: + | Antimicrobial activity (inhibition zone) [6]: + | Antimicrobial activity (inhibition zone) [7]: + | concentration giving the most effective antimicrobial (antifungal, anticandidal and antibacterial) results [8]: 5.5 mg/cm^2 | Antimicrobial activity (inhibition zone) [9]: + | Antimicrobial activity (inhibition zone) [10]: + | Antimicrobial activity (inhibition zone) [11]: + | Antimicrobial activity (inhibition zone) [12]: +

N=C(NCCCCCCNC(=N)NC(=N)Nc1ccc(Cl)cc1)NC(=N)Nc1ccc(Cl)cc1.O=C(O)[C@H](O)[C@@H](O)[C@H](O)[C@H](O)CO.O=C(O)[C@H](O)[C@@H](O)[C@H](O)[C@H](O)CO [Chlorhexidine gluconate]
cytopathic effect on the cells in the cell culture [13]: showed cytopathic effect | lowest ratio which does not show cytopathic effect [13]: 0.1% | reduction of virus titration [14]: more than 99% | activity against virus [15]: ineffective | activity against virus [16]: ineffective | Reduction ratio in virus titration ([17]; 1 minute, Clean medium): 4 Logarithmic TCID50 | Virus titration with Chlorhexidine gluconate ([17]; 1 minute, Clean medium): 2.3 Logarithmic TCID50 | Reduction ratio in virus titration ([17]; 1 minute, Polluted medium): 4 Logarithmic TCID50 | Virus titration with Chlorhexidine gluconate ([17]; 1 minute, Polluted medium): 2.3 Logarithmic TCID50 | Reduction ratio in virus titration ([17]; 60 minutes, Clean medium): 4 Logarithmic TCID50 | Virus titration with Chlorhexidine gluconate ([17]; 60 minutes, Clean medium): 2.3 Logarithmic TCID50 | Reduction ratio in virus titration ([17]; 60 minutes, Polluted medium): 4 Logarithmic TCID50 | Virus titration with Chlorhexidine gluconate ([17]; 60 minutes, Polluted medium): 2.3 Logarithmic TCID50 | reduction in virus titration [17, 26]: at least 4 log | active against virus [17, 27]: 99.9% | Reduction ratio in virus titration ([18]; 1 minute, Clean medium): 4.0 Logarithmic TCID50 | Virus titration with Chlorhexidine gluconate ([18]; 1 minute, Clean medium): 1.5 Logarithmic TCID50 | Reduction ratio in virus titration ([18]; 1 minute, Polluted medium): 4.0 Logarithmic TCID50 | Virus titration with Chlorhexidine gluconate ([18]; 1 minute, Polluted medium): 1.5 Logarithmic TCID50 | Reduction ratio in virus titration ([18]; 60 minutes, Clean medium): 4.5 Logarithmic TCID50 | Virus titration with Chlorhexidine gluconate ([18]; 60 minutes, Clean medium): 1.0 Logarithmic TCID50 | Reduction ratio in virus titration ([18]; 60 minutes, Polluted medium): 4.0 Logarithmic TCID50 | Virus titration with Chlorhexidine gluconate ([18]; 60 minutes, Polluted medium): 1.5 Logarithmic TCID50 | reduction in virus titration [18, 26]: at least 4 log | active against virus [18, 27]: 99.9% | reduction in virus titration [19]: at least 4 log | Reduction ratio in virus titration ([19]; 0.1%, 20° C.): 4.2 Logarithmic TCID50 | Virus titration with Chlorhexidine gluconate ([19]; 0.1%, 20° C.): 1.3 Logarithmic TCID50

OB(O)O [boric acid]
antibacterial activity [20]: has antibacterial activity

CC1COc2c(N3CCN(C)CC3)c(F)cc3c(=O)c(C(=O)O)cn1c23 (stereo not drawn) [Ofloxacin]
Antimicrobial activity (inhibition zone) [5]: + | Antimicrobial activity (inhibition zone) [6]: + | Antimicrobial activity (inhibition zone) [7]: +

Oc1cc(Cl)ccc1Oc1ccc(Cl)cc1Cl [triclosan]
effectiveness relative to hexachlorophene [21]: less effective | effectiveness relative to hexachlorophene [22]: less effective | effectiveness relative to hexachlorophene [23]: less effective

[K+].[K+].[O-]B1OB2OB([O-])OB(O1)O2 [potassium tetraborate]
minimum concentration preventing micelle growth [24]: 0.1% | control of mold causing disease on the grapes [25]: could control

O.O.O.O.O.[Na+].[Na+].[O-]B1OB2OB([O-])OB(O1)O2 [BP, Borax pentahydrate]
Antimicrobial activity (inhibition zone) [2]: + | Antimicrobial activity (inhibition zone) [3]: + | Antimicrobial activity (inhibition zone) [4]: + | Antimicrobial activity (inhibition zone) [5]: + | Antimicrobial activity (inhibition zone) [6]: + | Antimicrobial activity (inhibition zone) [7]: + | concentration giving the most effective antimicrobial (antifungal, anticandidal and antibacterial) results [8]: 5.5 mg/cm^2 | Antimicrobial activity (inhibition zone) [9]: + | Antimicrobial activity (inhibition zone) [10]: + | Antimicrobial activity (inhibition zone) [11]: + | Antimicrobial activity (inhibition zone) [12]: +

Sodium Borate [SB]
Antimicrobial activity (inhibition zone) [2]: + | Antimicrobial activity (inhibition zone) [3]: + | Antimicrobial activity (inhibition zone) [4]: + | Antimicrobial activity (inhibition zone) [5]: + | Antimicrobial activity (inhibition zone) [6]: + | Antimicrobial activity (inhibition zone) [7]: + | concentration giving the most effective antimicrobial (antifungal, anticandidal and antibacterial) results [8]: 4 mg/cm^2 | Antimicrobial activity (inhibition zone) [9]: + | Antimicrobial activity (inhibition zone) [10]: + | Antimicrobial activity (inhibition zone) [11]: + | Antimicrobial activity (inhibition zone) [12]: +

C[C@@H]1[C@H](O)[C@@H](C)/C=C/C=C/CC/C=C/C=C/C=C/C=C/C(O[C@H]2O[C@H](C)[C@@H](O)[C@H](N)[C@@H]2O)CC2O[C@](O)(CC(O)C(O)CCC(O)CC(O)CC(O)CC(=O)O[C@H]1C)CC(O)C2C(=O)O (stereo partly drawn) [Nystatin]
Antimicrobial activity (inhibition zone) [2]: + | Antimicrobial activity (inhibition zone) [3]: + | Antimicrobial activity (inhibition zone) [4]: + | Antimicrobial activity (inhibition zone) [9]: + | Antimicrobial activity (inhibition zone) [10]: + | Antimicrobial activity (inhibition zone) [11]: + | Antimicrobial activity (inhibition zone) [12]: +

From patent US10124085B2, “Antimicrobial and antiviral hygienic products” (priority 2014, dated 2018)
